Legend:
[1] = Second rate constant of the reaction with TCO; assay type: physicochemical
Procedure: (§1) In this test, the absorption spectrum was measured with a UV-VIS spectrophotometer UV-1650PC (Shimadzu), and the emission spectrum and motion data were measured using a Cary Eclipse Fluorescence spectrophotometer (Varian Associates), and the absolute quantum yield was measured with a QE-2000 (Otsuka Electronics).

[2] = Change in emission properties (quantum yield, excitation/emission maxima, fluorescence amplification) before and after reaction with TCO; assay type: physicochemical; conditions: for fluorescence amplification rate (on/off): before and after reaction with TCO
Procedure: as §1
The emission spectrum was compared when the maximum fluorescence intensity was reached before and after the reaction of the compound and TCO, and changes in fluorescence of the compounds of Examples 1 to 4 and Comparative Examples 1 to 4 were observed, and the results are shown in Table 1 below.
The emission spectrum was compared when the maximum fluorescence intensity was reached before and after the reaction of the compound and TCO, and changes in fluorescence of the compounds of Examples 1 and 4 and Comparative Examples 3 to 6 were observed, and the results are shown in Table 2 below, FIGS. 3 and 4.

Row | λem maximum emission wavelength ([2]; Table 1) | λex largest excitation maxima at a given maximum emission wavelength ([2]; Table 1) | Φon absolute quantum yield after the reaction with TCO ([2]; Table 1) | Φoff absolute quantum yield before the reaction with TCO ([2]; Table 1) | λem maximum emission wavelength ([2]; Table 2) | λex largest excitation maxima at a given maximum emission wavelength ([2]; Table 2) | Φon absolute quantum yield after the reaction with TCO ([2]; Table 2) | Φoff absolute quantum yield before the reaction with TCO ([2]; Table 2) | SMILES | K2 second rate constant value ([1]; Table 1, measured at 20° C.) | fluorescence amplification rate (on/off) ([2]; Table 1) | K2 second rate constant value ([1]; Table 2, measured at 20° C.) | fluorescence amplification rate (on/off) ([2]; Table 2) | fluorescence signal amplification efficiency after the reaction with TCO ([2]; Table 2, long wavelength range, diethylamino group at R1)
1 | 532 nm | 416 nm | 0.168 | 0.011 |  |  |  |  | CC(=O)c1ccn2c3c(c(-c4ccc(-c5nnc(C)nn5)cc4)c2c1)CN(CCCNC(=O)OC(C)(C)C)C3=O [Comparative Example 1, tert-butyl (3-(7-acetyl-9-(4-(6-methyl-1,2,4,5-tetrazin-3-yl)phenyl)-3-oxo-1,3-dihydro-2H-pyrrolo[3,4-b]indolizin-2-yl)propyl)carbamate] | 21 m^−1s^−1 | 20 |  |  | 
2 | 522 nm | 401 nm | 0.583 | 0.042 |  |  |  |  | CC(=O)c1ccn2c3c(c(-c4ccc(C(=O)NCc5ccc(-c6nnc(C)nn6)cc5)cc4)c2c1)CN(CCCNC(=O)OC(C)(C)C)C3=O [Comparative Example 2, tert-butyl (3-(7-acetyl-9-(4-((4-(6-methyl-1,2,4,5-tetrazin-3-yl)benzyl)carbamoyl)phenyl)-3-oxo-1,3-dihydro-2H-pyrrolo[3,4-b]indolizin-2-yl)propyl)carbamate] | 15 m^−1s^−1 | 14 |  |  | 
3 | 530 nm | 401 nm | 0.325 | 0.017 | 530 nm | 401 nm | 0.325 | 0.017 | CC(=O)c1ccn2c3c(c(-c4ccccc4)c2c1)CN(CCCNC(=O)CCC(=O)NCc1ccc(-c2nnc(C)nn2)cc1)C3=O [Comparative Example 4, N^1-(3-(7-acetyl-3-oxo-9-phenyl-1,3-dihydro-2H-pyrrolo[3,4-b]indolizin-2-yl)propyl)-N^4-(4-(6-methyl-1,2,4,5-tetrazin-3-yl)benzyl)succinimide] | 8.5 m^−1s^−1 | 24 | 8.5 m^−1s^−1 | 24 | 
4 |  |  |  |  | 625 nm | 438 nm | 0.028 | 0.013 | CCN(CC)c1ccc(-c2c3c(n4ccc(C(C)=O)cc24)C(=O)N(CCCNC(=O)CCC(=O)NCc2ccc(-c4nnc(C)nn4)cc2)C3)cc1 [Comparative Example 6, N^1-(3-(7-acetyl-9-(4-(diethylamino)phenyl)-3-oxo-1,3-dihydro-2H-pyrrolo[3,4-b]indolizin-2-yl)propyl)-N^4-(4-(6-methyl-1,2,4,5-tetrazin-3-yl)benzyl)succinimide] |  |  | 1.2 m^−1s^−1 | 3 | significantly reduced
5 | 562 nm | 390 nm | 0.064 | 0.002 |  |  |  |  | Cc1nnc(-c2ccn3c4c(c(-c5ccc(N)cc5)c3c2)CN(CCCNC(=O)OC(C)(C)C)C4=O)nn1 [Example 3, tert-butyl (3-(9-(4-aminophenyl)-7-(6-methyl-1,2,4,5-tetrazin-3-yl)-3-oxo-1,3-dihydro-2H-pyrrolo[3,4-b]indolizin-2-yl)propyl)carbamate] | 22 m^−1s^−1 | >600 |  |  | 
